# Laboratory results: US11932632B1, “N'-(2-(5-phenyl-1,3,4-oxadiazol-2-ylthio)acetoxy)benzo[d][1,3]dioxole-5 carboximidamide as an antimicrobial compound” (KING FAISAL UNIVERSITY, priority 2023, dated 2024)
# Key:
# Assay type in all cases: cell-based
# Bacillus Cereus = assay: Agar plate disc-diffusion, antibacterial activity by inhibition zone; settings: nutrient agar, 37° C., 48 h, DMSO zone subtracted
# Description: (§1) The agar plate disc-diffusion method was applied. […] The discs were then placed onto the surface of agar plates (nutrient agar for bacteria and Sabouraud's dextrose agar for fungi) seeded with the test organism. Each plate contained 15 mL of the agar medium, previously seeded with 0.2 mL of the broth culture of each organism pregrown for 18 hours. The plates were incubated at 37° C. for 48 h, and 72 h for fungi. The inhibition zones were measured in mm. Discs impregnated with DMSO were used as a control, and its inhibition zone was subtracted from the tested compound actual inhibition zone.
# (§2) The results of the antimicrobial testing can be observed in Tables 1 and 2, below, using ciprofloxacin as a reference.
# Escherichia coli = assay: as above; settings: nutrient agar, 37° C., 48 h, DMSO zone subtracted
# Description: as §1, §2
# Pseudomonas aeruginosa = assay: as above; settings: nutrient agar, 37° C., 48 h, DMSO zone subtracted
# Description: as §1, §2
# Staphylococcus aureus = assay: as above; settings: nutrient agar, 37° C., 48 h, DMSO zone subtracted
# Description: as §1, §2
# Aspergillus flavus = assay: Agar plate disc-diffusion, antifungal activity by inhibition zone; settings: Sabouraud's dextrose agar, 37° C., 72 h, DMSO zone subtracted
# Description: as §1, §2
# [1] = system: Chrysosporium keratinophilum; assay: as above; settings: Sabouraud's dextrose agar, 37° C., 72 h, DMSO zone subtracted
# Description: as §1, §2
# [2] = A = concentration of comp. = 10,000 μL
# [3] = B = concentration of comp. = 30.000 μL
# [4] = C = concentration of comp. = 50,000 μL
smiles,measurement,setting,value
"N/C(=N\OC(=O)CSc1nnc(-c2ccccc2)o1)c1ccc2c(c1)OCO2 [Compound 3, N′-(2-(5-phenyl-1,3,4-oxadiazol-2-ylthio)acetoxy)benzo[d][1,3]dioxole-5-carboximidamide]","inhibition zone, Bacillus Cereus, A",Bacillus Cereus; [2],25 mm
same,"inhibition zone, Bacillus Cereus, B",Bacillus Cereus; [3],29 mm
same,"inhibition zone, Bacillus Cereus, C",Bacillus Cereus; [4],39 mm
same,"inhibition zone, Escherichia coli, A",Escherichia coli; [2],29 mm
same,"inhibition zone, Escherichia coli, B",Escherichia coli; [3],33 mm
same,"inhibition zone, Escherichia coli, C",Escherichia coli; [4],49 mm
same,"inhibition zone, Pseudomonas aeruginosa, A",Pseudomonas aeruginosa; [2],24 mm
same,"inhibition zone, Pseudomonas aeruginosa, B",Pseudomonas aeruginosa; [3],27 mm
same,"inhibition zone, Pseudomonas aeruginosa, C",Pseudomonas aeruginosa; [4],39 mm
same,"inhibition zone, Staphylococcus aureus, A",Staphylococcus aureus; [2],18 mm
same,"inhibition zone, Staphylococcus aureus, B",Staphylococcus aureus; [3],21 mm
same,"inhibition zone, Staphylococcus aureus, C",Staphylococcus aureus; [4],37 mm
same,"inhibition zone, Aspergillus flavus, A",Aspergillus flavus; [2],21 mm
same,"inhibition zone, Aspergillus flavus, B",Aspergillus flavus; [3],25 mm
same,"inhibition zone, Aspergillus flavus, C",Aspergillus flavus; [4],36 mm
same,"inhibition zone, Chrysosporium keratinophilum, A",[1]; [2],25 mm
same,"inhibition zone, Chrysosporium keratinophilum, B",[1]; [3],27 mm
same,"inhibition zone, Chrysosporium keratinophilum, C",[1]; [4],42 mm
